Where “and” joins values, the source holds several entries; their conditions need not be identical. Equal values may be shown once.

The values below come from US11471537B2, “Oligomer extended insulin-Fc conjugates” (Novo Nordisk A/S, priority 2017, dated 2022).

Data set [1] deals with insulin receptor A (Homo sapiens, UniProt P06213). Nature of the data set: Insulin receptor affinity. Format: binding. To be noted: relative to affinity of human insulin for insulin receptor A (100%).
Data set [2] is described as follows: PK studies: intravenous and subcutaneous administration to SD rats, insulin-Fc concentrations by immuno-assay. Particulars: for PK rat sc [T½ (h)] Mean Value: subcutaneous. The data set is classed as in vivo. On the procedure: Insulin-Fc conjugates were tested in vivo by intravenous and subcutaneous administration to SD rats. Blood samples were collected and the insulin-Fc concentrations were measured by immuno-assay.

Data set [3] deals with Sprague-Dawley rats. Nature of the data set: PD studies: blood glucose after subcutaneous dosing. Format: in vivo. To be noted: sc, dose 30 nmol/kg. The essentials:
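Normal male Sprague-Dawley rats (~350 g), fed ad libitum, received a single subcutaneous neck dose of 30 nmol/kg unless otherwise stated. Tongue-vein blood was sampled up to 10 days post-dose for blood glucose (Biosen analyser) and plasma insulin.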

Data set [4] relates to isolated rat adipocytes. Nature of the data set: Insulin-stimulated lipogenesis. Format: cell-based. To be noted: 1% HSA; relative to the activity of human insulin (100%). On the procedure: Insulin-stimulated lipogenesis was measured in isolated rat adipocytes in presence of 1% HSA as described in Moody A J, Stan M A, Stan M, Gliemann J. A Simple Free Fat Cell Bioassay for Insulin. Hormone And Metabolic Research. 1974; 6(1):12-6, see results in Table 6.

Sequence of insulin receptor A (P06213 28-1370 isoform P06213-2 limits assumed): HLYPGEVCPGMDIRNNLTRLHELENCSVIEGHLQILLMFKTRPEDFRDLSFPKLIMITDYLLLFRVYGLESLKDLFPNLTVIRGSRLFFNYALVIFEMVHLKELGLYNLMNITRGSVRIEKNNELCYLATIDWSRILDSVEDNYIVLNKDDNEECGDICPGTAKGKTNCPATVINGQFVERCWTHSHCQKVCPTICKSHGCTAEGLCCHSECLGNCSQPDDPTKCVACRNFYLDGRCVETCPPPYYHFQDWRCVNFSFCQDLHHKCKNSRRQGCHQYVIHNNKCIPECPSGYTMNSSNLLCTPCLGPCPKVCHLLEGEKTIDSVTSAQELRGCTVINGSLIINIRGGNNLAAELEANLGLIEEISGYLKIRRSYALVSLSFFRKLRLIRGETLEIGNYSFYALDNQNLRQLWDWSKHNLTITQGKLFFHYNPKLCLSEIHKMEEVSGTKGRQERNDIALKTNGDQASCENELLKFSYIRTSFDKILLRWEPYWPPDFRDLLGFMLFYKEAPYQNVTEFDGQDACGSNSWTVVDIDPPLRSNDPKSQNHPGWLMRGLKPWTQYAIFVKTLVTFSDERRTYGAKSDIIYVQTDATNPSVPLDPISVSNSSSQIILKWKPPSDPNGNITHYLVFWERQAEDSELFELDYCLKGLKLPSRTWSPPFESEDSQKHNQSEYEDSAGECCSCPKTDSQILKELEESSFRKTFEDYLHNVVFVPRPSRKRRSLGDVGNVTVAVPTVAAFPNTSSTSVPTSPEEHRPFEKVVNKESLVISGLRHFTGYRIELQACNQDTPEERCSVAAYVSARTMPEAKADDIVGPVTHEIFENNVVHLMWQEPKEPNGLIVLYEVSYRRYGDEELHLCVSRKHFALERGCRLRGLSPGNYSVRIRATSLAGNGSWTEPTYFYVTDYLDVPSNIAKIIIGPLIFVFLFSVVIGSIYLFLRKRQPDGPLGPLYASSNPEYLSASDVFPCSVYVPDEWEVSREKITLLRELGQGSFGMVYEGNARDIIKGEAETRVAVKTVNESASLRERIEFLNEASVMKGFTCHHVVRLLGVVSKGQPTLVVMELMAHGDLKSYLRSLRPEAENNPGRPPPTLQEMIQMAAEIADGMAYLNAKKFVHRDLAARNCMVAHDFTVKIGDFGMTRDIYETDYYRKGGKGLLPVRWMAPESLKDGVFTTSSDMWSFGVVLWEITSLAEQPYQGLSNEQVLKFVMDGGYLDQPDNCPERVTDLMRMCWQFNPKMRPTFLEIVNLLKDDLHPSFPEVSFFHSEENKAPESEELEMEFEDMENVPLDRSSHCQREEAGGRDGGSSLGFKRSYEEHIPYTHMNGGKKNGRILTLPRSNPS
Sequence of insulin receptor A (P06213 763-1382 partner limits assumed): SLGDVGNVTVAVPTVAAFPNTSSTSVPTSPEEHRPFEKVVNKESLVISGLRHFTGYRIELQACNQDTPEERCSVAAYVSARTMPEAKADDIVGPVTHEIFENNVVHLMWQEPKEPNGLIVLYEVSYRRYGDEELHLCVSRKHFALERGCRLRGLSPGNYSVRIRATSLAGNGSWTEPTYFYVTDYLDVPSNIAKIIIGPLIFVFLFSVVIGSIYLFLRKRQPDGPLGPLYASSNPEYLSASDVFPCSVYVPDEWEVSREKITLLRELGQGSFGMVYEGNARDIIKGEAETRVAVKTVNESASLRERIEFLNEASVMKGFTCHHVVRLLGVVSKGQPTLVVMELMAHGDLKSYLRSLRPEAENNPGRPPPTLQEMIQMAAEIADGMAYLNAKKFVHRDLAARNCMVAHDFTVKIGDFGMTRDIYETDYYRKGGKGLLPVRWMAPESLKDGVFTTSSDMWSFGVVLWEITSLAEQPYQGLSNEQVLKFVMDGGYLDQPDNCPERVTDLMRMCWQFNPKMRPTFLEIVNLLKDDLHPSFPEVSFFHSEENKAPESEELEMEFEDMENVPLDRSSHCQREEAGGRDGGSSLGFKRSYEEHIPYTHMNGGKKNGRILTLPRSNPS

With “(A14E, A21G, A22(GQAP)19, A98K^, A99P, B25H, B29R, desB30 human insulin)/(227A, 234A, 235K, 297E, 315Q, 384Q, des447 hIgG4-Fc(228-447))6-[bis[2-[(2-acetyl)amino]ethyl]amino]-6-oxo-hexanoyl conjugate [Example 5.16]”, the “Insulin receptor affinity [IC50 relative to HI (%)] Mean Value” in data set [1] came out at 3.86%. In addition, the “PK rat iv [T½ (h)] Mean Value” in data set [2] came to 25.7 h. In data set [2], the “PK rat sc [T½ (h)] Mean Value” was determined as 36.2 h. For the same substance, the Average blood glucose was determined as 6.544 mM in data set [3] (time 0 days); 5.972 mM in data set [3] (time 0.041667 days); 4.74 mM in data set [3] (time 0.125 days); 4.028 mM in data set [3] (time 0.291667 days); 2.42 mM in data set [3] (time 1 day); 2.592 mM in data set [3] (time 2 days). Moreover, the Average blood glucose in data set [3] (time 3 days) was 3.156 mM; in data set [3] (time 4 days), 5.7 mM; in data set [3] (time 6 days), 5.784 mM; in data set [3] (time 7 days), 5.848 mM; in data set [3] (time 8 days), 5.72 mM. Further, the “Lipogenesis in rat adipocytes [Potency (%)] Mean Value” in data set [4] was 4.34%.
For “A14E, A21G, A22(GQAPGQEP)6, A70K^, A71P, B25H, B29R, desB30 human insulin/(227A, 234A, 235K, 297E, 315Q, 384Q, des447 hIgG4-Fc(228-447))4-[bis[2-[(2-acetyl)amino]ethyl]amino]-4-oxo-butanoyl Conjugate [Example 5.14]”, in data set [1], the “Insulin receptor affinity [IC50 relative to HI (%)] Mean Value” was determined as 5.37%. For the same substance, the “PK rat iv [T½ (h)] Mean Value” in data set [2] stood at 46.6 h. Further, the “PK rat sc [T½ (h)] Mean Value” in data set [2] came to 54.0 h. Besides, the Average blood glucose is recorded as 6.248 mM in data set [3] (time 0 days); 5.32 mM in data set [3] (time 0.041667 days); 4.08 mM in data set [3] (time 0.125 days); 3.048 mM in data set [3] (time 0.291667 days); 2.356 mM in data set [3] (time 1 day); 2.4 mM in data set [3] (time 2 days). In addition, the Average blood glucose was found to be 2.832 mM in data set [3] (time 3 days); 4.304 mM in data set [3] (time 4 days); 6.032 mM in data set [3] (time 6 days); 6.076 mM in data set [3] (time 7 days); 5.5 mM in data set [3] (time 8 days). Moreover, the “Lipogenesis in rat adipocytes [Potency (%)] Mean Value” in data set [4] is 4.86%.
As for “A14E, A21G, A22(GQEP)12, A70K^, A71P, B25H, B29R, desB30 human insulin/(227A, 234A, 235K, 297E, 315Q, 384Q, des447 hIgG4-Fc(228-447))4-[bis[2-[(2-acetyl)amino]ethyl]amino]-4-oxo-butanoyl Conjugate [Example 5.17]”, the “Insulin receptor affinity [IC50 relative to HI (%)] Mean Value” in data set [1] was found to be 3.98%. In addition, the “PK rat iv [T½ (h)] Mean Value” in data set [2] was 46.2 h. For the same substance, in data set [2], the “PK rat sc [T½ (h)] Mean Value” is 40.3 h. Further, the Average blood glucose in data set [3] (time 0 days) is reported as 6.372 mM; in data set [3] (time 0.041667 days), 5.84 mM; in data set [3] (time 0.125 days), 5.14 mM; in data set [3] (time 0.291667 days), 3.672 mM; in data set [3] (time 1 day), 2.6 mM; in data set [3] (time 2 days) it was 2.704 mM. In addition, the Average blood glucose in data set [3] (time 3 days) is reported as 2.772 mM; in data set [3] (time 4 days), 5.232 mM; in data set [3] (time 6 days), 5.88 mM; in data set [3] (time 7 days), 5.908 mM; in data set [3] (time 8 days), 5.656 mM. The “Lipogenesis in rat adipocytes [Potency (%)] Mean Value” in data set [4] is 4.39%.
For “(A14E, A21G, A22(GQEP)19, A98K^, A99P, B25H, B29R, desB30 human insulin)/(227A, 234A, 235K, 297E, 315Q, 384Q, des447 hIgG4-Fc(228-447))4-[bis[2-[(2-acetyl)amino]ethyl]amino]-4-oxo-butanoyl Conjugate [Example 5.12]”, in data set [1], the “Insulin receptor affinity [IC50 relative to HI (%)] Mean Value” was 1.85%. For the same substance, the “PK rat iv [T½ (h)] Mean Value” in data set [2] is on record as 23.3 h. Besides, the “PK rat sc [T½ (h)] Mean Value” in data set [2] is reported as 25.1 h. Moreover, the Average blood glucose was 5.816 mM and 5.516 mM in data set [3] (time 0 days, listed as Ex 5.12); 5.598 mM and 6.16 mM in data set [3] (time 0.041667 days, listed as Ex 5.12); 5.674 mM and 4.608 mM in data set [3] (time 0.125 days, listed as Ex 5.12); 5.338 mM in data set [3] (time 0.208333 days); 4.598 mM and 3.988 mM in data set [3] (time 0.291667 days, listed as Ex 5.12); 2.986 mM and 2.88 mM in data set [3] (time 1 day, listed as Ex 5.12). For the same substance, the Average blood glucose is 2.524 mM and 2.348 mM in data set [3] (time 2 days, listed as Ex 5.12); 2.576 mM and 2.972 mM in data set [3] (time 3 days, listed as Ex 5.12); 3.284 mM and 6.028 mM in data set [3] (time 4 days, listed as Ex 5.12); 6.884 mM and 6.06 mM in data set [3] (time 5 days, listed as Ex 5.12); 6.506 mM and 5.74 mM in data set [3] (time 6 days, listed as Ex 5.12); 6.202 mM and 5.716 mM in data set [3] (time 7 days, listed as Ex 5.12). In addition, the Average blood glucose was 6.046 mM and 5.568 mM in data set [3] (time 8 days, listed as Ex 5.12); 5.204 mM in data set [3] (time 9 days); 5.556 mM in data set [3] (time 10 days). Moreover, the “Lipogenesis in rat adipocytes [Potency (%)] Mean Value” in data set [4] was determined as 2.35%.
